Reference: article PMC8125603, “Species-Specific Regulation of TRPM2 by PI(4,5)P2 via the Membrane Interfacial Cavity” (International Journal of Molecular Sciences, 2021)

Legend:
hsTRPM2 = target: T1, hsTRPM2 (Homo sapiens, UniProt O94759); assay: inside-out patch clamp, HEK-293 cells, -60 mV, dose-response of current activation; format: biochemical
T1 construct: gene TRPM2; full-length wild-type cDNA in modified pIRES-hrGFP-2a, transient in HEK-293 cells; homotetramer; inside-out patches (C-terminal 3xHA tag only for surface expression tests)

nvTRPM2 = target: T2, nvTRPM2 (Nematostella vectensis, UniProt A7T1N0); assay: as above; format: biochemical
T2 construct: gene TRPM2; full-length wild-type cDNA in modified pIRES-hrGFP-2a, transient in HEK-293 cells; homotetramer; inside-out patches (C-terminal 3xHA tag only for surface expression tests)
T2 sequence (A7T1N0 whole entry): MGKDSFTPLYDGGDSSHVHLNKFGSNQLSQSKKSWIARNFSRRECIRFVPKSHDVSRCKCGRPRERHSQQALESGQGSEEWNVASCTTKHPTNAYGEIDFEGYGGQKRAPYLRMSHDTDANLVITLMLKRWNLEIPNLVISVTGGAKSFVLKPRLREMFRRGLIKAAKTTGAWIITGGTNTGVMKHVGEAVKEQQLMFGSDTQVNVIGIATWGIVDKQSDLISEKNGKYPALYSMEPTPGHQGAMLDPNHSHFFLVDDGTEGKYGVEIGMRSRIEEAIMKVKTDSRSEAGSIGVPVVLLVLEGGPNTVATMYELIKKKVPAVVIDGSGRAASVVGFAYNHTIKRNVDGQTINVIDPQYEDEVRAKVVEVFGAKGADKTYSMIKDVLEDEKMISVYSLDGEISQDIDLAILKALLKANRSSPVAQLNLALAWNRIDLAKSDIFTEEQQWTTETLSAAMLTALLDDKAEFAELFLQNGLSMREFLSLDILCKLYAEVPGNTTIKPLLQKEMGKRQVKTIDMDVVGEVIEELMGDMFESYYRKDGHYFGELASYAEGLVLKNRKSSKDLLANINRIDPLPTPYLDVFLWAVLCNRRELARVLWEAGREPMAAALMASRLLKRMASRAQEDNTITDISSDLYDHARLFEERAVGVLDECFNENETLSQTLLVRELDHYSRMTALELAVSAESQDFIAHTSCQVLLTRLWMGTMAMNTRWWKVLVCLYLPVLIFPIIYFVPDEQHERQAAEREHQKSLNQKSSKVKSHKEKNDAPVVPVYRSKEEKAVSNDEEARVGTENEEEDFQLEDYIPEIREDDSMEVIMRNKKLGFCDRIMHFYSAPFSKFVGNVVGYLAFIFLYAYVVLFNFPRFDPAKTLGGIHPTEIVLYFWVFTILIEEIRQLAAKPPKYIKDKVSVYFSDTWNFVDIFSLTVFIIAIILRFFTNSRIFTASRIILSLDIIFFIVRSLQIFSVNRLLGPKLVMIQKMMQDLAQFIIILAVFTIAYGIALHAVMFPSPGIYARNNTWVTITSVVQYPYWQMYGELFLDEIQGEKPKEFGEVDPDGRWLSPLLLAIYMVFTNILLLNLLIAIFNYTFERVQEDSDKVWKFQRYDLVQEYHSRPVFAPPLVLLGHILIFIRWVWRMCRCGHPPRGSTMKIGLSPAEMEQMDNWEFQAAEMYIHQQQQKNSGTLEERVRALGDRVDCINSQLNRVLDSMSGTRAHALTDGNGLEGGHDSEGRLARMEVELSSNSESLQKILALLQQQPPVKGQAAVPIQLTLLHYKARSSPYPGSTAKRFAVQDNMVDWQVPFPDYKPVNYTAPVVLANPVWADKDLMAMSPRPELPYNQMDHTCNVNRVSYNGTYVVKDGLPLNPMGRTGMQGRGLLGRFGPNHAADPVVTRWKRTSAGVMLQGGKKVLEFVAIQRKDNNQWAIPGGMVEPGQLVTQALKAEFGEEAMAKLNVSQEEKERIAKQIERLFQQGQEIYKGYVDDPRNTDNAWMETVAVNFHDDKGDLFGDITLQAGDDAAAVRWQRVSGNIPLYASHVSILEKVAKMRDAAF

T1 sequence (O94759 whole entry): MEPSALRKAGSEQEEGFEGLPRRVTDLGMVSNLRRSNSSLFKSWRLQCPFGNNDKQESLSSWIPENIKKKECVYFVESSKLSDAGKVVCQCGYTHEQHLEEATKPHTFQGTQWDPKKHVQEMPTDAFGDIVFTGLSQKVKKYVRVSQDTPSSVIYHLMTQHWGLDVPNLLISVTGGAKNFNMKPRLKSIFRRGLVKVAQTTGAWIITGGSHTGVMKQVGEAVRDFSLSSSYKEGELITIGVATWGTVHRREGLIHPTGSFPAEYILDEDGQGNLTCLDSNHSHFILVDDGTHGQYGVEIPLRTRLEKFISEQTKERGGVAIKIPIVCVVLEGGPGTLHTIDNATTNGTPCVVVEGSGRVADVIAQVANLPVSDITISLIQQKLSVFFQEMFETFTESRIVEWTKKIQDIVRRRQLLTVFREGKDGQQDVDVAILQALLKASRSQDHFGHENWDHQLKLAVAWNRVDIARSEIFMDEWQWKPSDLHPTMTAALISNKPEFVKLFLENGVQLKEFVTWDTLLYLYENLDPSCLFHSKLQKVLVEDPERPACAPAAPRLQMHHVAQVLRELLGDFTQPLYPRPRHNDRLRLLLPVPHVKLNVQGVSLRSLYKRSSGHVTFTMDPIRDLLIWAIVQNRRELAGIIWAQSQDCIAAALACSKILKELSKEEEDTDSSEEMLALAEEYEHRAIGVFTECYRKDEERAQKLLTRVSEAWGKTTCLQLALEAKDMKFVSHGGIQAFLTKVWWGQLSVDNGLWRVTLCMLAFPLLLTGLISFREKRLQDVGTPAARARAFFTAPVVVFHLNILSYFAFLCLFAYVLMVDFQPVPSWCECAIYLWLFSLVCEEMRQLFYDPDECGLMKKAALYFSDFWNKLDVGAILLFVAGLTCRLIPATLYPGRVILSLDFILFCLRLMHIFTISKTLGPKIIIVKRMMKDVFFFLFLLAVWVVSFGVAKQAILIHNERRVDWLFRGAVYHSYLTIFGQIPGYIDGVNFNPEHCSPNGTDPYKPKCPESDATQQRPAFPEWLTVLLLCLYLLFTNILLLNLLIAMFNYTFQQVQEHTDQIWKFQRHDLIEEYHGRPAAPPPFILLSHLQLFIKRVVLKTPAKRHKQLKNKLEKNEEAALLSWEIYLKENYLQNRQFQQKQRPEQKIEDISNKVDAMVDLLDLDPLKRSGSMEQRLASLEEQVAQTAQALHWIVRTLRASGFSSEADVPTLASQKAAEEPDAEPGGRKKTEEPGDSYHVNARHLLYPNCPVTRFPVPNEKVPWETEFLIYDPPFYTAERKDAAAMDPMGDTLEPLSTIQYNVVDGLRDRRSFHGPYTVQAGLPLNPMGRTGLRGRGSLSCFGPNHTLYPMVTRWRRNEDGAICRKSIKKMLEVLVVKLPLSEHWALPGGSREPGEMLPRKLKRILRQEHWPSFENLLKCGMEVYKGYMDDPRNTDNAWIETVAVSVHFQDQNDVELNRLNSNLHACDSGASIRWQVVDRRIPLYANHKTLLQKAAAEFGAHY

EC50 (hsTRPM2): 11.9 ± 1.1 µM
EC50 (nvTRPM2): 2.1 ± 0.2 µM
Structure (SMILES): CCCCCCCC(=O)OC[C@H](COP(=O)(O)O[C@@H]1[C@H](O)[C@H](O)[C@@H](OP(=O)(O)O)[C@H](OP(=O)(O)O)[C@H]1O)OC(=O)CCCCCCC [PIP2]
